Measured values: EPA's ToxValDB 9.5 (doi:10.2903/j.efsa.2009.190r)

Legend:
Rattus norvegicus = details: for NOAEL: inhalation
Tagia sp. = details: acute; duration: 14 days; mortality
[1] = chronic, duration: 2 years, no effects
[2] = reproduction developmental, mortality
[3] = subchronic, duration: 90 days, no effects

| SMILES | LD50 (Rattus norvegicus; acute, oral, mortality) [mg/kg-day] | NOAEL (Rattus norvegicus; [1]) [mg/kg-day] | NOAEL (Rattus norvegicus; [2]) [mg/kg-day] | NOAEL (Rattus norvegicus; [3]) [mg/kg-day] | LC50 (Tagia sp.) [mg/kg] | NOAEL (Rattus norvegicus; developmental, duration: 10 days, development) [mg/kg-day] | NOAEL (Rattus norvegicus; subchronic, duration: 90 days, mortality) [mg/kg-day] |
| --- | --- | --- | --- | --- | --- | --- | --- |
| [Mg+2].[Mg+2].[Mg+2].[P-3].[P-3] [Magnesium phosphide] | 11.2 | 1.1 | 1.9 | 1.1 | 664 | – | – |
| P [Phosphine] | – | 1.1 | 1.9 | 1.1 | – | 1.9 | 1.1 |
